# Results as given in US9023789B2, “Amylin analogs and pharmaceutical compositions thereof” (Novo Nordisk A/S, priority 2012, dated 2015).
# pEC50, pIC50: −log10 of the molar value. Read-outs that look alike come from different tables or passages of the source. Numbered stars: 1 amine (or outer) side, 2 acyl side, 3 side chain; on linkers, the order of the positions; unused ones are H or OH. Bridge positions count the residues as written; N and C are the ends. Side chains are listed from the residue outwards. Peptide text beside a SMILES is read from it. * marks the point of attachment. C20 diacid = O=C(O)CCCCCCCCCCCCCCCCCCC(=O)*; γGlu = O=C(O)[C@H](CCC(=O)[*:2])N[*:1]; AEEA = NCCOCCOCC(=O)O
# Key:
# [1] = biological target: T1, human amylin 3(a) receptor (human calcitonin receptor + RAMP-3) in BHK570 cells (Homo sapiens, UniProt O60896+P30988); assay: ASSAY (II)a functional assay, human amylin receptor (CRE luciferase); type: cell-based
# T1 construct: expressed in transfected cells
# How it was run: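 BHK cells stably carrying a CRE-luciferase reporter plus calcitonin receptor, or calcitonin receptor with RAMP-3 for the amylin 3(a) receptor, were seeded and kept overnight at 37° C. Compounds were added in assay medium with 10% FBS and 10 mM Hepes, pH 7.4, for 3 hours at 37° C, then luminescence was counted.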
# [2] = ASSAY (IV) determination of solubility; type: physicochemical
# How it was run: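 Polypeptide in water at […] mixed 1:1 with 100 mM buffers of pH 3.0-8.0 (glycylglycine pH 3-5, bistrispropane pH 6-8). Held 18 h at room temperature, then centrifuged; concentration remaining in solution measured by UPLC.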
# [3] = biological target: T2, human amylin receptor (membranes from Amylin 3(a)/CRE-luc cells) (Homo sapiens, UniProt O60896+P30988); assay: ASSAY (V) binding to the human amylin receptor (SPA, 125I-rat amylin);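 further: competition binding of cell membranes (35 ng/µL) mixed with SPA beads in 384-well plates at 40 µL total volume, read by scintillation counting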
# T2 construct: expressed in transfected cells
# T2 sequence (P30988 25-474): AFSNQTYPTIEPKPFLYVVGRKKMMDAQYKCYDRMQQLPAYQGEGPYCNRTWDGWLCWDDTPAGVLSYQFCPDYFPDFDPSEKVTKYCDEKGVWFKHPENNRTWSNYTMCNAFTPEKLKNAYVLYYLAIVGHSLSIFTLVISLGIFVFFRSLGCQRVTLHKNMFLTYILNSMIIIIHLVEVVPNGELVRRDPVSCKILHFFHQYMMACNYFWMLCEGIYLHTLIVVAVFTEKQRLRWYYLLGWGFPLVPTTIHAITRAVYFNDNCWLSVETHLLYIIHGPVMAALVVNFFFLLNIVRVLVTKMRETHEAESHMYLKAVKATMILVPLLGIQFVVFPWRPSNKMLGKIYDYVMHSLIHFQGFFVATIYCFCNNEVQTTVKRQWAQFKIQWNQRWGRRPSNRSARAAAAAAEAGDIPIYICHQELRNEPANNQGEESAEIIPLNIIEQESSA
# T2 sequence (O60896 24-148 partner): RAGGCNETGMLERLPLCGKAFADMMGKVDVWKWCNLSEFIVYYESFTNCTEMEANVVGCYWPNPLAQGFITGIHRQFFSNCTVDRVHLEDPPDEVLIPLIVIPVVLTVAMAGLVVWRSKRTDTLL
# [4] = hCTR funct. EC50 divided by hAmylin-R funct. EC50
# [5] = human functional selectivity: hCTR funct. EC50 / hAmylin-R funct. EC50
# [6] = bistrispropane buffer, pH 6.5, read-out: Solubility pH 6.5 Concentration
# [7] = bistrispropane buffer, pH 7.5, read-out: Solubility pH 7.5 Concentration
# [8] = bistrispropane buffer, pH 6.0, read-out: Solubility pH 6.0 Concentration
# [9] = bistrispropane buffer, pH 7.0, read-out: Solubility pH 7.0 Concentration
# [10] = bistrispropane buffer, pH 8.0, read-out: Solubility pH 8.0 Concentration
# [11] = glycylglycine buffer, pH 3.0, read-out: Solubility pH 3.0 Concentration
# [12] = glycylglycine buffer, pH 4.0, read-out: Solubility pH 4.0 Concentration
# [13] = glycylglycine buffer, pH 5.0, read-out: Solubility pH 5.0 Concentration
# [14] = Table 5, selectivity, hCTR bind IC50 / hAmylin-R bind IC50
# [15] = Table 5a, selectivity, hCTR bind IC50 / hAmylin-R bind IC50
# [16] = Table 5b, selectivity, hCTR bind IC50 / hAmylin-R bind IC50
# [17] = Table 5c, selectivity, hCTR bind IC50 / hAmylin-R bind IC50
# [18] = Table 7, human binding selectivity, included for comparison
# [19] = Table 7a (preferred compounds), human binding selectivity, included for comparison
# [20] = ratio of human calcitonin receptor binding IC50 to human amylin receptor binding IC50
SMILES,"Ratio hCT/hAmylin funct. [1, 4]","Ratio hCT/hAmylin funct. [1, 5]","solubility at 18 h [2, 6] [µM]","solubility at 18 h [2, 7] [µM]","solubility at 18 h [2, 8] [µM]","solubility at 18 h [2, 9] [µM]","solubility at 18 h [2, 10] [µM]","solubility at 18 h [2, 11] [µM]","solubility at 18 h [2, 12] [µM]","solubility at 18 h [2, 13] [µM]","Ratio hCT/hAmylin binding [3, 14]","Ratio hCT/hAmylin binding [3, 15]","Ratio hCT/hAmylin binding [3, 16]","Ratio hCT/hAmylin binding [3, 17]","Ratio hCT/hAmylin binding [3, 18]","Ratio hCT/hAmylin binding [3, 19]","Ratio hCT/hAmylin binding [3, 20]","pEC50 ([1]; human amylin receptor functional potency, assay (II), read-out: hAmylin-R funct. EC50)","pIC50 ([3]; Table 4, read-out: hAmylin-R bind IC50)"
CC[C@H](C)[C@H](NC(=O)[C@H](C)NC(=O)CNC(=O)[C@H](Cc1ccccc1)NC(=O)[C@H](CC(N)=O)NC(=O)[C@@H]1CCCN1C(=O)[C@H](CO)NC(=O)[C@H](CO)NC(=O)[C@H](Cc1c[nH]cn1)NC(=O)[C@H](CCCNC(=N)N)NC(=O)[C@H](CC(C)C)NC(=O)[C@H](Cc1ccccc1)NC(=O)[C@H](CC(N)=O)NC(=O)[C@H](C)NC(=O)[C@H](CC(C)C)NC(=O)[C@H](CCCNC(=N)N)NC(=O)[C@H](CCC(N)=O)NC(=O)[C@@H](NC(=O)[C@H](C)NC(=O)[C@@H]1CSSC[C@H](NC(=O)[C@@H](N)CCCCNC(=O)COCCOCCNC(=O)CC[C@H](NC(=O)CCCCCCCCCCCCCCCCCCC(=O)O)C(=O)O)C(=O)N[C@@H](CC(N)=O)C(=O)N[C@@H]([C@@H](C)O)C(=O)N[C@@H](C)C(=O)N[C@@H]([C@@H](C)O)C(=O)N1)[C@@H](C)O)C(=O)N1CCC[C@H]1C(=O)N[C@@H](CO)C(=O)N1CCC[C@H]1C(=O)N[C@H](C(=O)N[C@@H](CC(N)=O)C(=O)N[C@H](C(=O)NCC(=O)N1CCC[C@H]1C(=O)N[C@@H](CC(N)=O)C(=O)N[C@H](C(=O)N[C@@H](Cc1ccc(O)cc1)C(N)=O)[C@@H](C)O)C(C)C)[C@@H](C)O [Example 56] (H-K([AEEA-γGlu-C20 diacid])CNTATCATQRLANFLRHSSPNFGAIPSPTNVGPNTY-NH2; disulfide 2-7 (inferred); N-terminus assumed),5.0,5.0,≥ 200,≥ 200,≥ 200,≥ 200,147,≥ 200,≥ 200,≥ 200,42.6,42.6,42.6,42.6,42.6,42.6,42.6,–,–
CC[C@H](C)[C@H](NC(=O)[C@H](C)NC(=O)CNC(=O)[C@H](Cc1ccccc1)NC(=O)[C@H](CC(N)=O)NC(=O)[C@@H]1CCCN1C(=O)[C@H](CO)NC(=O)[C@H](CO)NC(=O)[C@H](Cc1c[nH]cn1)NC(=O)[C@H](CCCNC(=N)N)NC(=O)[C@H](CC(C)C)NC(=O)[C@H](Cc1ccccc1)NC(=O)[C@H](CC(N)=O)NC(=O)[C@H](C)NC(=O)[C@H](CC(C)C)NC(=O)[C@H](CCCNC(=N)N)NC(=O)[C@H](CCC(N)=O)NC(=O)[C@@H](NC(=O)[C@H](C)NC(=O)[C@@H]1CSSC[C@H](NC(=O)[C@@H](N)CCCCNC(=O)COCCOCCNC(=O)CCCCCCCCCCCCCCCCCCC(=O)O)C(=O)N[C@@H](CC(N)=O)C(=O)N[C@@H]([C@@H](C)O)C(=O)N[C@@H](C)C(=O)N[C@@H]([C@@H](C)O)C(=O)N1)[C@@H](C)O)C(=O)N1CCC[C@H]1C(=O)N[C@@H](CO)C(=O)N[C@@H](CO)C(=O)N[C@H](C(=O)N[C@@H](CC(N)=O)C(=O)N[C@H](C(=O)NCC(=O)N[C@@H](CO)C(=O)N[C@@H](CC(N)=O)C(=O)N[C@H](C(=O)N[C@@H](Cc1ccc(O)cc1)C(N)=O)[C@@H](C)O)C(C)C)[C@@H](C)O [Example 43],6.5,6.5,≥ 200,≥ 200,≥ 200,≥ 200,≥ 200,≥ 200,≥ 200,≥ 200,34.7,34.7,34.7,34.7,34.7,34.7,34.7,9.85,10.12
CC[C@H](C)[C@H](NC(=O)[C@H](C)NC(=O)CNC(=O)[C@H](Cc1ccccc1)NC(=O)[C@H](CC(N)=O)NC(=O)[C@@H]1CCCN1C(=O)[C@H](CO)NC(=O)[C@H](CO)NC(=O)[C@H](Cc1c[nH]cn1)NC(=O)[C@H](CCCNC(=N)N)NC(=O)[C@H](CC(C)C)NC(=O)[C@H](Cc1ccccc1)NC(=O)CNC(=O)[C@H](C)NC(=O)[C@H](CC(C)C)NC(=O)[C@H](CCCNC(=N)N)NC(=O)[C@H](CCC(N)=O)NC(=O)[C@@H](NC(=O)[C@H](C)NC(=O)[C@@H]1CSSC[C@H](NC(=O)[C@@H](N)CCCCNC(=O)COCCOCCNC(=O)CC[C@H](NC(=O)CCCCCCCCCCCCCCCCCCC(=O)O)C(=O)O)C(=O)N[C@@H](CC(N)=O)C(=O)N[C@@H]([C@@H](C)O)C(=O)N[C@@H](C)C(=O)N[C@@H]([C@@H](C)O)C(=O)N1)[C@@H](C)O)C(=O)N1CCC[C@H]1C(=O)N[C@@H](CO)C(=O)N[C@@H](CO)C(=O)N[C@H](C(=O)N1CCC[C@H]1C(=O)N[C@H](C(=O)NCC(=O)N[C@@H](CO)C(=O)N[C@@H](CC(N)=O)C(=O)N[C@H](C(=O)N[C@@H](Cc1ccc(O)cc1)C(N)=O)[C@@H](C)O)C(C)C)[C@@H](C)O [Example 71] (H-K([AEEA-γGlu-C20 diacid])CNTATCATQRLAGFLRHSSPNFGAIPSSTPVGSNTY-NH2; disulfide 2-7),9.4,9.4,≥ 200,≥ 200,≥ 200,≥ 200,≥ 200,≥ 200,≥ 200,≥ 200,32.0,32.0,32.0,32.0,32.0,32.0,32.0,–,–
